From paper PMC11990615 (Molecules, 2025)
Several values for one entry are separate records, joined by “and”; a condition that tells them apart may be missing. Equal values may be shown once.

Tests used:
[1] = system: Colletotrichum gloeosporioides; assay: Fungicidal activity, mycelial growth inhibition on PDA plates; details: for Inhibition rate: at a concentration of 26.5 μmol/L; for inhibition at 26.5 µM: read-out: Inhibition rate; for IC50: mycelial growth, 96 h dark incubation at 26 °C
Experimental: Pure water was used as a negative control. Mycelial plugs with a diameter of 5 mm were positioned in the middle of PDA plates that held various sample concentrations. Every treatment was carried out three times. […] The formula used to compute the suppression of mycelial growth was inhibition (%) = (Dc − Dt)/(Dc − 5) × 100%, where Dc and Dt are the diameters in millimeters of the treatment colony and the control colony, respectively. […] The tests, in turn, constructed t-statistics and determined the signifi-cance of differences between groups.

[2] = Photostability under UV irradiation (photolysis kinetics); type: physicochemical; details: aqueous solution 26.6 μmol/L, 15 W UV lamp 254 nm, 25 °C; for half-life at 26.6 μmol/L: read-out: t1/2, photolysis half-life (converted)
Experimental: Photostability evaluation. […] At different time intervals (0, 0.5, 1, 1.5, 2, 3, 4, and 6 h), 100 μL of the solutions was accurately removed from the vials, diluted tenfold with methanol, and analyzed by HPLC-MS/MS. Instrument specifications are detailed in the Supporting Information.
As dark controls, aluminum foil-wrapped quartz tubes were used to prevent the impact of outside variables. […] The coefficient of determination r^2 was used to describe the goodness of fit of the curves. The half-lives t1/2 of the chemicals were calculated by the following formula:(2) t1/2=−ln(0.5)/K

[3] = Interfacial surface tension, Wilhelmy plate method; type: physicochemical; details: saturated aqueous solution, 25 °C; no unit printed with the values (method: mN/m)
Experimental: Pure water’s surface tension was used to calibrate the device. After cleaning and drying, the sensing platinum plate was slowly oriented perpendicular to the solution interface. The plate will stop when the liquid surface tension and other relevant forces reach a balance. The interfacial surface tension values of the test chemicals were noted. Each compound was determined with three parallel samples.

[4] = Octanol-water partition coefficient, shake-flask method; type: physicochemical; details: n-octanol/water, 25 °C
Experimental: Initially, a n-octanol solution containing 2000 mg/L of the compound was mixed with water in centrifuge tubes at 1:2, 1:1, and 2:1 volume ratios, with two parallel samples for each ratio. All tubes were shaken at a constant temperature of 25 °C for 3 h. Subsequently, the samples were centrifuged at 4000 rpm for 10 min. The octanol and aqueous phases were then carefully collected and diluted tenfold with methanol, and their concentrations were measured using HPLC-UV and HPLC-MS/MS, respectively. Instrument specifications are detailed in the Supporting Information.

[5] = parameters: method as in earlier work; details: cited from earlier work
[6] = weak base; no reference given; cited from earlier work
aquatic organisms = system: aquatic organisms; parameters: method as in earlier work; details: cited from earlier work
[7] = Colletotrichum gloeosporioides, 96 h

SMILES: O=C([O-])/C=C/c1ccccc1.[Na+] [Sodium cinnamate]
- Inhibition rate [1]: 2.8 ± 1.1%

SMILES: CC(=O)C(=O)O [Pyruvic acids, Pyruvic acid]
- inhibition at 26.5 µM ([1]; Colletotrichum gloeosporioides): 4.5 ± 0.4%

SMILES: CC(=O)O.CCCN(CCOc1c(Cl)cc(Cl)cc1Cl)C(=O)n1ccnc1 [[Pro][AceA]] [listing 1 of 2 here]
- half-life at 26.6 μmol/L [2]: 1.73 h
- IC50 [1, 7]: 0.53 µg/mL

SMILES: CCCCCCCC/C=C\CCCCCCCC(=O)[O-].[Na+] [Sodium oleate]
- Inhibition rate [1]: 3.9 ± 2.6%

SMILES: CCCN(CCOc1c(Cl)cc(Cl)cc1Cl)C(=O)n1ccnc1.O=C(O)c1ccccc1 [[Pro][BenA]] [listing 1 of 2 here]
- half-life at 26.6 μmol/L [2]: 0.9 h
- IC50 [1, 7]: 1.04 µg/mL

SMILES: CCCN(CCOc1c(Cl)cc(Cl)cc1Cl)C(=O)n1ccnc1.O=C(O)c1ccccc1O [[Pro][SalA]] [listing 1 of 2 here]
- half-life at 26.6 μmol/L [2]: 1.73 h
- IC50 [1, 7]: 1 µg/mL

SMILES: CC(O)C(=O)O.CCCN(CCOc1c(Cl)cc(Cl)cc1Cl)C(=O)n1ccnc1 [[Pro][LacA]] [listing 1 of 2 here]
- K, first-order photolysis rate constant [2]: 0.391 h⁻¹
- IC50 [1]: 1740 nM

SMILES: CCCN(CCOc1c(Cl)cc(Cl)cc1Cl)C(=O)n1ccnc1 [[Pro][OleA]]
- IC50 [1]: 2020 nM

SMILES: CCCCCCCCC(=O)[O-].[Na+] [Sodium nonanoate]
- Inhibition rate [1]: 2.9 ± 0.3%

SMILES: CCCCCCCC/C=C\CCCCCCCC(=O)O [Oleic acids, Oleic acid]
- inhibition at 26.5 µM ([1]; Colletotrichum gloeosporioides): 3.4 ± 1.3%

SMILES: CCCN(CCOc1c(Cl)cc(Cl)cc1Cl)C(=O)n1ccnc1.O=C(O)c1ccccc1O [[Pro][SalA]] [listing 2 of 2 here]
- K, first-order photolysis rate constant [2]: 0.401 h⁻¹
- IC50 [1]: 1940 nM

SMILES: CCCN(CCOc1c(Cl)cc(Cl)cc1Cl)C(=O)n1ccnc1.O=C(O)c1ccccc1 [[Pro][BenA]] [listing 2 of 2 here]
- K, first-order photolysis rate constant [2]: 0.774 h⁻¹
- IC50 [1]: 2090 nM

SMILES: O=C(O)c1ccccc1O [Salicylic acids, Salicylic acid]
- inhibition at 26.5 µM ([1]; Colletotrichum gloeosporioides): 4.5 ± 0.3%

SMILES: CC(=O)O [Acetic acids, Acetic acid]
- Inhibition rate [1]: 8.3 ± 2.3%

SMILES: CC(O)C(=O)O.CCCN(CCOc1c(Cl)cc(Cl)cc1Cl)C(=O)n1ccnc1 [[Pro][LacA]] [listing 2 of 2 here]
- half-life at 26.6 μmol/L [2]: 1.77 h
- IC50 [1, 7]: 0.81 µg/mL

SMILES: CCCCCCCCC=CCCCCCCCC(=O)O.CCCN(CCOc1c(Cl)cc(Cl)cc1Cl)C(=O)n1ccnc1 [[Pro][OleA]]
- Interfacial surface tension [3]: 42.53
- K, first-order photolysis rate constant [2]: 0.552 h⁻¹
- IC50 [1]: 1.33 µg/mL

SMILES: CC(=O)C(=O)[O-].[Na+] [Sodium pyruvate]
- Inhibition rate [1]: 3.5 ± 0.2%

SMILES: O=C(O)/C=C/c1ccccc1 [Cinnamic acids, Cinnamic acid]
- inhibition at 26.5 µM ([1]; Colletotrichum gloeosporioides): 7.5 ± 2.4%

SMILES: CC(O)C(=O)[O-].[Na+] (stereo not shown) [Sodium lactate]
- Inhibition rate [1]: 4.0 ± 0.4%

SMILES: CCCCCCCCC(=O)O [Nonanoic acids, Nonanoic acid]
- inhibition at 26.5 µM ([1]; Colletotrichum gloeosporioides): 1.8 ± 1.3%

SMILES: O=C(O)c1ccccc1 [Benzoic acids, Benzoic acid]
- inhibition at 26.5 µM ([1]; Colletotrichum gloeosporioides): 7.2 ± 1.2%

SMILES: CC(=O)O.CCCN(CCOc1c(Cl)cc(Cl)cc1Cl)C(=O)n1ccnc1 [[Pro][AceA]] [listing 2 of 2 here]
- K, first-order photolysis rate constant [2]: 0.400 h⁻¹
- IC50 [1]: 1220 nM

SMILES: CCCCCCCCC(=O)O.CCCN(CCOc1c(Cl)cc(Cl)cc1Cl)C(=O)n1ccnc1 [[Pro][NonA]]
- Interfacial surface tension [3]: 41.24
- K, first-order photolysis rate constant [2]: 0.438 h⁻¹
- t1/2, photolysis half-life [2]: 1.58 h

SMILES: CC(O)C(=O)O (stereo not shown) [Lactic acids, Lactic acid]
- inhibition at 26.5 µM ([1]; Colletotrichum gloeosporioides): 6 ± 1%

SMILES: CCCN(CCOc1c(Cl)cc(Cl)cc1Cl)C(=O)n1ccnc1.O=C(O)/C=C/c1ccccc1 [[Pro][CinA]]
- K, first-order photolysis rate constant [2]: 0.305 h⁻¹
- IC50 [1]: 2 µM and 1.05 mg/L

SMILES: O=C([O-])c1ccccc1.[Na+] [Sodium benzoate]
- Inhibition rate [1]: 3.0 ± 1.1%

SMILES: CC(=O)C(=O)O.CCCN(CCOc1c(Cl)cc(Cl)cc1Cl)C(=O)n1ccnc1 [[Pro][PyrA]]
- K, first-order photolysis rate constant [2]: 0.383 h⁻¹
- t1/2, photolysis half-life [2]: 1.81 h

SMILES: CCCN(CCOc1c(Cl)cc(Cl)cc1Cl)C(=O)n1ccnc1 [Prochloraz, N-propyl-N-(2,4,6-trichlorophenoxy)ethyl-imidazole-1-carboxamide]
- logKow [4]: 3.52
- Interfacial surface tension [3]: 51.75
- K, first-order photolysis rate constant [2]: 0.641 h⁻¹
- half-life at 26.6 μmol/L [2]: 1.08 h
- Photolysis half-life in water [5]: 36 h
- pKa [6]: 3.8
- Concentrations at which embryonic mortality and developmental effects were observed (aquatic organisms): 2400 ng/mL and 4800 ng/mL
- IC50 [1, 7]: 1.39 µM and 0.52 µg/mL
- inhibition at 26.5 µM ([1]; Colletotrichum gloeosporioides): 100 ± 0.1%

SMILES: CC(=O)[O-].[Na+] [Sodium acetate]
- Inhibition rate [1]: 5.9 ± 0.5%

SMILES: O=C([O-])c1ccccc1O.[Na+] [Sodium Salicylate]
- Inhibition rate [1]: 2.0 ± 2.7%
